Test results taken from patent US20080076751A1, “Azetidinone Derivatives and Methods of Use Thereof” (priority 2006, published 2008).
Read-outs that look alike come from different tables or passages of the source.

Legend:
human NPC1L1 = molecular target: T1, human NPC1L1 (Homo sapiens, UniProt Q9UHC9); experiment: NPC1L1 binding assay (BODIPY-labeled glucuronidated ezetimibe competition), human; conditions: HEK-293 cells expressing human NPC1L1, 4 hours at 37° C.
T1 construct: expressed in transfected cells; host or cells: HEK-293 (geneticin selection)
T1 sequence (Q9UHC9 22-1359): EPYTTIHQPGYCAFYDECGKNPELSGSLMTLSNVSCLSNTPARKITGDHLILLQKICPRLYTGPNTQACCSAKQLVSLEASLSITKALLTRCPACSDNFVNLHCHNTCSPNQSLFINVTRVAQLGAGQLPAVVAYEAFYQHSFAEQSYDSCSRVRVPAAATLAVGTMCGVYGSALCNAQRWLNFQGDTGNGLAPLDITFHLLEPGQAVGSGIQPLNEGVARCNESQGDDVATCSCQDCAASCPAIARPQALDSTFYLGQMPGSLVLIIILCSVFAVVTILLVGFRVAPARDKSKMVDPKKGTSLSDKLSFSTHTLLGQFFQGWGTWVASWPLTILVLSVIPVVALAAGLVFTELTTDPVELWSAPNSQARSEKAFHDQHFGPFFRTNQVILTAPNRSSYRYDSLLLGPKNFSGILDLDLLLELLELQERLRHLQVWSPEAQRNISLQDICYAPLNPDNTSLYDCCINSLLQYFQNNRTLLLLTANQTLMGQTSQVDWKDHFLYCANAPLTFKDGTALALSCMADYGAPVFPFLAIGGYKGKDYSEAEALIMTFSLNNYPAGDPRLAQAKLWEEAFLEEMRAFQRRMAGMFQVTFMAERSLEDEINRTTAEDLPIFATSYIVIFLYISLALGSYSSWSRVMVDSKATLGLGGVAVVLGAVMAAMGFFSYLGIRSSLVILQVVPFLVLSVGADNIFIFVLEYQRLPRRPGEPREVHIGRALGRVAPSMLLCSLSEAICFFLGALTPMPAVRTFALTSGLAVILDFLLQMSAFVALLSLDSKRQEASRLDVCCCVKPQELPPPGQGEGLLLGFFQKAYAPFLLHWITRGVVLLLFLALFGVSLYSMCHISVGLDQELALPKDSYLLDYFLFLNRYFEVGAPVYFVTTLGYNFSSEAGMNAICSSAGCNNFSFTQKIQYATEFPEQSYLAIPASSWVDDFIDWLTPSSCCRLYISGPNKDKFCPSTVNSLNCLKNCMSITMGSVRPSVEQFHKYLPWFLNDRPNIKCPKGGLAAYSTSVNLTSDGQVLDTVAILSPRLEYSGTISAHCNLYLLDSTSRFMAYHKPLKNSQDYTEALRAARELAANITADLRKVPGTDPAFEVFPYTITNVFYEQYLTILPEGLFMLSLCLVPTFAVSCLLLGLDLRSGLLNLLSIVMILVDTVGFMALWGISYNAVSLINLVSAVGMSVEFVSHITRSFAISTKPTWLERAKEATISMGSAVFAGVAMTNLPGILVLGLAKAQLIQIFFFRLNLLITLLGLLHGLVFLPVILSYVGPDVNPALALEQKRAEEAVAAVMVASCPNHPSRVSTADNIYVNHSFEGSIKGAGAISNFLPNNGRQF
Experimental: HEK-293 cells expressing human NPC1L1 were plated into 384-well black/clear plates (BD Biosciences, Bedford Mass.) for binding experiments the following day. Cell growth media (DMEM, 10% fetal calf serum, 1 mg/mL geneticin, 100 Units/mL penicillin) was aspirated. Cell growth media ([…]) containing 250 nM BODIPY-labeled glucuronidated ezetimibe was added to each well. Cell growth media ([…]) containing the indicated concentration of compound was then added to the wells. Unlabeled glucuronidated ezetimibe ([…]) was used to determine nonspecific binding. The binding reaction was allowed to proceed for 4 hours at 37° C. Subsequently the cell growth media was aspirated and the cells washed once with PBS. The remaining fluorescent labeled glucuronidated ezetimibe bound to the cells was quantified using a FlexStation plate reader (Molecular Devices, Sunnyvale Calif.) to measure fluorescence intensity. Ki values were determined from competition binding curves (n=4 for each point) using Prism and Activity Base software.

TRPV1 (VR1) = molecular target: T2, TRPV1 (VR1) (Rattus norvegicus, UniProt O35433); experiment: TRPV1 screening assay (FLIPR, Fluo-4 calcium), capsaicin stimulation; type: cell-based
T2 construct: expressed in transfected cells; host or cells: HEK293-TetOFF, expression induced by withdrawing doxycycline
Excerpt: • 1) Cell line: HEK293-Tet^OFF-TRPV1 • 2) Media: MEM (Invitrogen) • 3) 10% Tet-FBS (Clontech #8630-1) • 4) Fungizone (Gibe #15290-018 (100X)) • 5) Penn/Strep (Gibco #15140-122 (100X)) • 6) Geneticin (Gibco #10131-027 (100X)) • 7) Hygromycin (Clontech #8057-1) • 8) Doxycycline (Clontech #8634-1) • 9) Trypsin/EDTA (Gibco #25200-056) • 10) 100 mm cell culture plates (Falcon #3003) • 11) 96-well poly-D-lysine plates (Fisher #08-774-256) • 12) Hank's Balanced Salt Solution (HBSS) (GIBCO #14025-092) • 13) HEPES Buffer (GIBCO #15630-080) • 14) 30% BSA (Research Organics #1334A) • 15) Probenecid (Sigma P-8761) • 16) Fluo-4, AM (50 μg) (Molecular Probes F-23917) • 17) Pluronic F-127 20% (Molecular Probes P-3000). • 18) capsazepine (Sigma C-191) • 19) capsaicin (Sigma M-2028) • 20) compound plates (NUNC #442587) • 21) black pipet tips 96-well FLIPR (Robbins Scientific 1043-24-0) • 22) Additional reagents available from Fisher: methanol, DMSO, NaOH Reagent Preparation: 1) Cells: HEK293-Tet^OFF-TRPV11
• and Doxycycline 2.5 μg/mL final (from a 1000× stock in PBS) • Cells must be fed and/or split every 2-3 days (to maintain transcriptional repression with Doxycycline). • Must be split no more than 1:5 (50-75% confluency) to maintain growth and viability. • Grown on regular tissue culture plates (e.g Falcon 3003-100 mm) • Split cells via Trypsin/EDTA: incubate with trypsin at room temperature no longer than 5 minutes (HEK293 cells have a tendency to ball up if over trypsinized). • Two days prior to assay, the cells are split into 96-well plates in cell media in the absence of doxycycline at a concentration of 40,000 cells/well in a volume of 200 μL. 2) FLIPR buffer is prepared fresh:
Add 5 mL of Probenecid Solution, prepared as follows: 710 mg of probenecid (Sigma P-8761) is solubilized in 5 mL of 1N NaOH, 5 mL of above buffer is added for final volume of 10 mL. (of which 5 mL goes back into FLIPR buffer)
Combine 42 μL of dye mixture with 11 mL of FLIPR buffer/96-well plate.
Stock solution of 0.1 M capsaicin is prepared in MeOH (50 mg+1.6 mL MeOH). Store 50 μL aliquots at −80° C.
For assay: • a) Dilute stock by adding 0.8 μL into 1 mL of MeOH (final=80 uM). • b) Add 50 μL of diluted stock to 20 mL of FLIPR buffer (final=0.2 uM) • c) Agonist solution is added 150 μL/well to 96-well plate. • d) Final agonist concentration on cells will be 50 nM. […] Laser is adjusted upwards for an average signal≧10,000/well and less than 10% variability. 7) Compound addition conditions are as follows: • FLIPR setup (dual sequence parameters): • Sequence 1: • First interval 1 sec/60 counts • Second interval 6 sec/50 counts • Fluid addition=50 μL • Pipettor height 110 μL • Dispense Speed=30 μL/sec • Sequence 2: • Second interval 1 sec/60 counts • Second interval 6 sec/40 counts • Fluid addition=50 μL • Pipettor height=140 μL • Dispense Speed=50 μL/sec Data Analysis: • 1) Data from both additions is reported as Max-Min for each well

human CaV3.2 = molecular target: T3, human CaV3.2 (Homo sapiens, UniProt O95180); experiment: IonWorks screen for hCaV3.2 (T-type calcium current, voltage clamp); type: cell-based; conditions: IonWorks HT, HEK cells, 10 min incubation, pulse 10, 8-point curve; read-out: IW hCav3 2 IC50
T3 construct: expressed in transfected cells
Excerpt: Functional evaluation of voltage-gated ion channels can be used to determine potency and/or single concentration efficacy of the Azetidinone Derivatives of the present invention. Two different methodologies can be used to measure ion currents: the lonWorks HT (Molecular Devices, Sunnyvale, Calif.) a moderate throughput voltage clamp screening platform that utilizes 96-well compound plates and conventional whole cell patch clamp for lower throughput, higher fidelity determinations.
HEK cells are transiently transfected and then selected for stable heterologous expression of different channel proteins of interest. Calcium channel cell lines expressed a resting potassium current, human Kir2.1, and the pore forming α-subunit of voltage-gated calcium channels. In the case of CaV2.1 cells the auxiliary subunit, β2a, is also expressed. Calcium channel lines that are used to generate the data will express either human CaV3.2, rat CaV3.2 or human CaV2.1. The human heart sodium channel, hNaV1.5, are stably expressed in CHO cells.
Cell lines can be grown at 37° C. in humidified incubators, equilibrated with 95% air/5% CO2. CHO cells can be grown in Ham's F-12 medium. HEK cells can be grown in DMEM. All media are supplemented with 10% heat-inactivated fetal bovine serum, penicillin, streptomycin and appropriate selection antibiotics (zeocin, geneticin and/or hygromycin). Cells are passaged when 80% confluent or less.
IonWorks Screen for hCaV3.2
The extracellular buffer for experiments using this instrument contained the following (mM) (NaCl 125, HEPES 10, KCl 5.4, CaCl2 1.8, MgCl2 1.8, 0.2 BaCl2 pH 7.35). The lonWorks uses amphotericin to gain electrical access to the cell interior. The internal solution contained (mM concentrations): 130 K-gluconate, 20 KCl, 5 HEPES-KOH (pH 7.25), 2 CaCl2, 1 MgCl2. Amphotericin added at 5 mg in 65 mL when present (in 650 μL DMSO). All internal and external solutions for this experiment contain 1% DMSO. Cells were acutely trypsinized from a T-75 flask and resuspended in extracellular buffer at a density of 2×10^5 cells/mL.
Experiments were performed at room temperature. Transmembrane potential was held at −100 mV for 5 seconds prior to running the voltage protocol. During this time leak currents were measured during a step to −110 mV (200 milliseconds). T-type calcium currents were activated with a 250 millisecond step to −20 mV. This depolarization step was repeated for a total of 10 pulses with an interpulse interval of 1 second. Data were excluded if the following acceptance criteria were not met: total resistance for the pre-compound scan>65 MΩ, pre-compound current>250 pA, post compound total resistance>50 MΩ.
T-type currents were measured as the peak inward current minus the current at the end of the 250 msec step to −20 mV. After the recoding configuration was established there was a pre-compound measurement of current amplitude. Compound was added as a 3× solution containing 1% DMSO. After incubation with compound for 10 minutes currents were measured again. The current amplitude after compound addition was divided by the pre-compound current for pulse 10 to determine the fraction of current remaining after compound addition. For each compound, 8-point concentration-effect relationships were measured with ½ log serial dilutions.

T3 sequence (O95180 whole entry): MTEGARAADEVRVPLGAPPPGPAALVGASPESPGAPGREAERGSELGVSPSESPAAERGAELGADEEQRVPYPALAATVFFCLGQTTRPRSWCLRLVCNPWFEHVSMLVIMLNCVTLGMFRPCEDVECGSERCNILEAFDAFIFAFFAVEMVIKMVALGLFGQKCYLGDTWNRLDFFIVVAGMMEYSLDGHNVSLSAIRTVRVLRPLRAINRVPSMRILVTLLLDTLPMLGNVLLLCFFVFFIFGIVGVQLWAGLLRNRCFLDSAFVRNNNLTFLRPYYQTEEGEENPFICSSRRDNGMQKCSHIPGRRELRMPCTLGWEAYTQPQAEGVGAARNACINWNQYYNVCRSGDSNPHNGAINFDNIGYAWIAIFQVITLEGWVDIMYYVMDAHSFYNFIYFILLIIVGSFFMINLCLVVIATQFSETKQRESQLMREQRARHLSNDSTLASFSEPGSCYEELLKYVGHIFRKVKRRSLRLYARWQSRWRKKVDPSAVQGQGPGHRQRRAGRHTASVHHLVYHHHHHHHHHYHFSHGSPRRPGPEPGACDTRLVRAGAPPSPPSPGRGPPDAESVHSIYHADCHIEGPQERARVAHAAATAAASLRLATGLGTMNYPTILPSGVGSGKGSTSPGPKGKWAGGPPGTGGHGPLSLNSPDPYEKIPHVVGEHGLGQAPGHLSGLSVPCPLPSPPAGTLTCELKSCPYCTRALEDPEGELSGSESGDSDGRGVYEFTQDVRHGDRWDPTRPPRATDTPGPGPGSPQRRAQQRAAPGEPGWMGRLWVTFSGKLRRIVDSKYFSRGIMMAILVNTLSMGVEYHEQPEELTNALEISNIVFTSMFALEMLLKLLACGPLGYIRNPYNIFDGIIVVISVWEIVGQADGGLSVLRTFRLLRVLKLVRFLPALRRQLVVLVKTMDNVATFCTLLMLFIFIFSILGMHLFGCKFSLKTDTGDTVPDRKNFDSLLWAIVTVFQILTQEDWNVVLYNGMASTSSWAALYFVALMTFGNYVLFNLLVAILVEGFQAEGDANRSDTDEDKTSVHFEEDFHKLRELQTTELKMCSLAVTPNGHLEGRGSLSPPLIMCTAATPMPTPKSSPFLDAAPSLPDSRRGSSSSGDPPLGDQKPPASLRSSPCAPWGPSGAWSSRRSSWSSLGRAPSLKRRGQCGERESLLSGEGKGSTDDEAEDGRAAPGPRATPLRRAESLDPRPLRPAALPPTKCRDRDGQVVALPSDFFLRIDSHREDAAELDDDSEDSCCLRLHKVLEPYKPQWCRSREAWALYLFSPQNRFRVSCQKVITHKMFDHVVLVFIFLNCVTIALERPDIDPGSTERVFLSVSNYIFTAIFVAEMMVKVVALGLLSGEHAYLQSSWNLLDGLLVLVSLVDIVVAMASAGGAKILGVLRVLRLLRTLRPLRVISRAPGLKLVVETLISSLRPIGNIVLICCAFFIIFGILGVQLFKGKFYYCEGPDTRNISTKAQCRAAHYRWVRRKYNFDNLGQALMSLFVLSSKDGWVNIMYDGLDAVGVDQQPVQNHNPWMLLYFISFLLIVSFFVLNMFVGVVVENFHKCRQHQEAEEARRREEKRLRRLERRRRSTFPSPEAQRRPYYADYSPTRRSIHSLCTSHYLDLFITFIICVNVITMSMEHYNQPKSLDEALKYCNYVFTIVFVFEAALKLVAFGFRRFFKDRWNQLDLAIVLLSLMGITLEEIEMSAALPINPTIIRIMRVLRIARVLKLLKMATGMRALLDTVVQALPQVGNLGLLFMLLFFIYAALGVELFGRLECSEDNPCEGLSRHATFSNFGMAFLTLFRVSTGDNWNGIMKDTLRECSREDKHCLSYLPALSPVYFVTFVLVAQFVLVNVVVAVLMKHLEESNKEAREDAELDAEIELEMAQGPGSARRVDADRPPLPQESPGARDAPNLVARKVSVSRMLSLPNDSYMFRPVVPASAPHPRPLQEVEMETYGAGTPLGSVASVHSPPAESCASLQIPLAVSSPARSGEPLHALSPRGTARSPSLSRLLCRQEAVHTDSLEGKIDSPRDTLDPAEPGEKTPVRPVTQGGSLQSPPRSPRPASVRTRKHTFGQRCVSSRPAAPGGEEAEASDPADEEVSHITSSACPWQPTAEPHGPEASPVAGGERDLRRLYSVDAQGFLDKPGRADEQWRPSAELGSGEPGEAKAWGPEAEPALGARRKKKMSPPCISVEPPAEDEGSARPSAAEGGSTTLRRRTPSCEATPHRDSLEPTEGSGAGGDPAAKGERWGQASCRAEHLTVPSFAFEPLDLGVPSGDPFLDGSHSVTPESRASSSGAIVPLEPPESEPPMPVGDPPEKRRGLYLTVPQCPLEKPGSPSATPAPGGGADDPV
T2 sequence (O35433 whole entry): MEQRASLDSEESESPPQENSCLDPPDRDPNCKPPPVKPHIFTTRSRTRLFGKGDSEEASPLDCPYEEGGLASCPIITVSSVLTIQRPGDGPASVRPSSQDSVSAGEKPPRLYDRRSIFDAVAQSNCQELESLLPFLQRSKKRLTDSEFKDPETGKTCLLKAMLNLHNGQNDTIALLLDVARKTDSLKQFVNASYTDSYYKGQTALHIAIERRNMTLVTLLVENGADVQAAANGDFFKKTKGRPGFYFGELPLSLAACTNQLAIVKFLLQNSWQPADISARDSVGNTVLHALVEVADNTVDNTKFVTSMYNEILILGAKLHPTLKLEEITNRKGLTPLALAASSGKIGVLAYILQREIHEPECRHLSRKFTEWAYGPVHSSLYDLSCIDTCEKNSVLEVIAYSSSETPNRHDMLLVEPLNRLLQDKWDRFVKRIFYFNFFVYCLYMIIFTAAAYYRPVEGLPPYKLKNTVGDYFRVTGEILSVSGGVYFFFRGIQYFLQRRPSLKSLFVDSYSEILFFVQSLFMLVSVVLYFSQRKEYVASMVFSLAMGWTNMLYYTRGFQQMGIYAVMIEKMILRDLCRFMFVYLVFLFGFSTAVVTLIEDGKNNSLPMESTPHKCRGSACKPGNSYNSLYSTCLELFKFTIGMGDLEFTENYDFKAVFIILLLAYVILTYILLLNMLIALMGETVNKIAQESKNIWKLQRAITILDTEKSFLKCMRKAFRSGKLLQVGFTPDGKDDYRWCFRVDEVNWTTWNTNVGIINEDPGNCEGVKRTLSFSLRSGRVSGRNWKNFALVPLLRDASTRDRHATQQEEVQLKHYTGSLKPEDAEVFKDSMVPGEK

Row | SMILES | IC50 (human CaV3.2) [nM] | other results
1 | O=C(NCc1cccc(F)c1)N1CCC2(CC1)C(=O)N(c1ccccc1)C2c1ccccc1 (stereo not drawn) | – | Ki (human NPC1L1): 26000 nM
2 | Oc1cc2c(cc1O)CN(C(=S)NCCc1ccc(Cl)cc1)CCC2 [capsazepine, reference compound] | – | IC50 (TRPV1 (VR1); reference antagonist in reagent preparation, read-out: IC50 of competitive antagonist capsazepine): ~500 nM
3 | O=C(Nc1ccccc1Cl)N1CCC2(CC1)C(=O)N(c1ccccc1)C2c1ccccc1 (stereo not drawn) | – | Ki (human NPC1L1): 8640 nM
4 | O=C(NC1CCCC1)N1CCC2(CC1)C(=O)N(c1ccccc1)C2c1ccccc1 (stereo not drawn) | – | Ki (human NPC1L1): 31200 nM
5 | O=C(NC1CCCCC1)N1CCC2(CC1)C(=O)N(c1ccccc1)C2c1ccccc1 (stereo not drawn) | – | Ki (human NPC1L1): 19700 nM
6 | COC(=O)[C@H](C)NC(=O)N1CCC2(CC1)C(=O)N(c1cccc(F)c1)C2c1ccc(Cl)cc1 (stereo partly drawn) | 827 | –
7 | CC[C@H](NC(=O)N1CCC2(CC1)C(=O)N(c1cccc(F)c1)C2c1ccc(Cl)cc1)c1ccccc1 (stereo partly drawn) | 224 | –
8 | CC[C@H](C)[C@H](NC(=O)N1CCC2(CC1)C(=O)N(C(C)C)C2c1ccc(Br)cc1)C(=O)OC (stereo partly drawn) | 277 | –
9 | O=C(Nc1cccnc1)N1CCC2(CC1)C(=O)N(c1cccc(Cl)c1)C2c1ccccn1 (stereo not drawn) | 1120 | –
10 | CC[C@H](C)[C@H](NC(=O)N1CCC2(CC1)C(=O)N(c1cccc(Cl)c1)C2c1ccccn1)C(=O)OC (stereo partly drawn) [drawing 572] | 635 | –
11 | C[C@H](NC(=O)N1CCC2(CC1)C(=O)N(c1ccc(F)c(Cl)c1)C2c1ccc(Br)cn1)c1ccc(F)cc1 (stereo partly drawn) | 136 | –
12 | N#Cc1cccc(NC(=O)N2CCC3(CC2)C(=O)N(c2cccc(F)c2)C3c2ccc(Cl)cc2)c1 (single isomer, unassigned) | 183 | –
13 | CC[C@H](C)[C@H](NC(=O)N1CCC2(CC1)C(=O)N(c1cccc(Cl)c1)C2c1cccnc1)C(=O)OC (stereo partly drawn) [drawing 641] | 1300 | –
14 | CC(C)(C)c1ccc(NC(=O)N2CCC3(CC2)C(=O)N(c2ccccn2)C3c2ccccc2)cc1 (stereo not drawn) | – | IC50 (TRPV1 (VR1); FLIPR, HEK293-TetOFF-TRPV1, capsaicin 50 nM final, read-out: VR1 flipr CAPSAICIN IC50): 1 nM
15 | O=C(Nc1cccc(C(F)(F)F)c1)N1CCC2(CC1)C(=O)N(c1ccc(F)c(Cl)c1)C2c1ccccn1 (stereo not drawn) [drawing 561] | 83 | –
16 | O=C(NCc1ccccc1Cl)N1CCC2(CC1)C(=O)N(c1ccccc1)C2c1ccccc1 (stereo not drawn) | – | Ki (human NPC1L1): 17600 nM
17 | C[C@@H](NC(=O)N1CCC2(CC1)C(=O)N(c1cccc(F)c1)C2c1ccc(Cl)cc1)c1ccccc1 (stereo partly drawn) | 351 | –
18 | CCC(C)[C@H](NC(=O)N1CCC2(CC1)C(=O)N(c1ccc(F)c(Cl)c1)C2c1ccc(-c2ccncc2)cn1)C(=O)OC (stereo partly drawn) | 634 | –
